Laboratory results reported in patent publication US20230233533A1, “COMPOSITIONS, METHODS OF TREATING AND PREVENTING FUNGAL INFECTIONS, AND METHODS OF INHIBITING PRP8 INTEIN EXPRESSION” (Health Research, Inc., priority 2020, published 2023).
pIC50: −log10 of the molar value. Values after ≈ are worked out from the molar mass of the structure shown.

Tests used:
C. neoformans = experiment: Sensititre YeastOne Y09 AST drug combination assay; assay type: cell-based, Cryptococcus neoformans; conditions: 6G-318S at 0.16 ug/ml, C. neoformans H99
Experimental: Sensititre YeastOne Y09 AST assay—Fungal susceptibility to a combination of compounds was carried out using the Sensititre YeastOne Y09 AST assay kit (Thermofisher), according to the manufacturer's manual. Briefly, fungal C. neoformans cells in exponential growth phase were diluted to a final OD530 of 0.1. Then 20 μl diluted cells were further diluted into 10 ml YPD as a stock. […] The stock C. neoformans (100 μl, ˜200 cells) were dispensed into the compound-ready 96-well plate. The fungal cells (treated or with DMF) were incubated at 30° C. for 48 h. The cell cultures were visualized by naked eye. The MIC break points were determined according to manufacturer's instructions.

Prp8 intein [1] = molecular target: T1, Prp8 intein (Cryptococcus gattii, UniProt E6R027); experiment: Split GFP-Prp8i intein splicing assay; assay type: biochemical; conditions: split GFP-Prp8 intein splicing
T1 sequence (E6R027 entry or part of it): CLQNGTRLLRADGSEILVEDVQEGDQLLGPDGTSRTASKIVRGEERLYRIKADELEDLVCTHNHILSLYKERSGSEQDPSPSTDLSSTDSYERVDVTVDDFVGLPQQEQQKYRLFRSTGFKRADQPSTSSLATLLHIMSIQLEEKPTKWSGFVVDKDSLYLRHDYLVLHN
Experimental: Cloning, expression and purfication—The split GFP-Prp8i was constructed using a mega-PCR mutagenesis approach. […] After digestion with Dpn I restriction enzyme, the PCR product was transformed into DH5α Escherichia coli. Clones were verified by plasmid DNA sequencing. The expression, refolding and purification of the GFP-Prp8i fusion protein were carried out as described previously.
[…] Then 100 μl 2×TCEP was added to a final concentration of 20 μM. The reactions were incubated at 25° C. overnight. […] Two readings were taken, one prior to addition of TCEP (I0) and one after incubation overnight with TCEP (If). Fluorescence/luminescence differences (ΔFluorescence or ΔLuminescence) were defined as If−I0 for each well. […] DMF control served as 100% splicing activity.
Split GFP-Prp8 and CJGFP-Prp8 intein splicing assays—Using black and clear bottom 96-well plates, the DPNB-treated, -refolded and -concentrated GFP-Prp8 or CfGFP-Prp8 fusion protein (0.5 μM) was incubated with compounds or Dimethylsulfoxide (DMSO) solvent control for 30 min at 25° C. in a 100 μl intein splicing buffer (20 mM Bis-tris propane, 0.5 M NaCl, 0.5 M arginine, 1 mM EDTA, and 0.05% CHAPS). Then 100 μl 2×TCEP was added to a final concentration of 20 μM. The reactions were incubated at 25° C. overnight. […] Two readings were taken, one prior to addition of TCEP (I0) and one after incubation overnight with TCEP (If). Fluorescence/luminescence differences (ΔFluorescence or ΔLuminescence) were defined as If−I0 for each well. […] DMSO control served as 100% splicing activity.

Prp8 intein [2] = molecular target: T1, Prp8 intein; experiment: Split Renilla luciferase RLuc-Prp8 intein splicing assay; assay type: biochemical; conditions: split Renilla luciferase RLuc-Prp8 intein splicing
Experimental: Split luciferase Prp8 intein splicing assay—The split RLuc-Prp8 fusion protein was carried out and monitored using a Veritas luminometer, as described previously.
Split luciferase RLuc-Prp8 and NnLuc-Prp8 intein splicing assays—The split RLuc-Prp8 intein splicing assay was carried out and monitored using a Veritas luminometer, as described previously. […] Microbes. Infect. […] For NnLuc-Prp8 intein splicing assay, the NnLuc-prp8 is diluted in assay buffer (50 mM Tris, 0.1% BSA, 1 mM EDTA, pH 7.4) and 50 ul is added to each well in 96 well black plates. Test molecules or the solvent was added and incubated for 30 to 60 min. A splicing inducer TCEP (50 ul, 100 μM) is added and incubated for 24 h. Luciferase substrate (Furimazine, 25 ul 1:10,000 diluted) is added and luminescence is read using a luminescence reader. IC50 is calculated using Graphpad prism.

in vitro = assay type: cell-based, human; conditions: human, CC50 A549
Experimental: Cytotoxicity—Cytotoxicity assays were carried out using human lung carcinoma cell line A549, as described (Chen et al., “Selective Inhibition of the West Nile Virus Methyltransferase by Nucleoside Analogs,” Antiviral Research 97(3):232-239 (2013), which is hereby incorporated by reference in its entirety). Briefly, the A549 cells (5×10^3) were incubated with/without compounds in a 96-well plate at 37° C. for 48 h. Cell viability was determined using the MTT assay (ATCC) as was described previously (Chen et al., “Selective Inhibition of the West Nile Virus Methyltransferase by Nucleoside Analogs,” Antiviral Research 97(3):232-239 (2013) and Brecher et al., “Identification and Characterization of Novel Broad-Spectrum Inhibitors of the Flavivirus Methyltransferase,” ACS Infectious Diseases 1(8):340-349 (2015), both of which are hereby incorporated by reference in their entirety). N=3.
Cytotoxicity—Cytotoxicity assays were carried out using human lung carcinoma cell line A549, as described. Chen et al., “Selective Inhibition of the West Nile Virus Methyltransferase by Nucleoside Analogs,” Antiviral Res. 97:232-9 (2013), which is hereby incorporated by reference in its entirety. Briefly, the A549 cells (5×10^3) were incubated with/without compounds in a 96-well plate at 37° C. for 48 h. Cell viability was determined using the MTT assay (ATCC) as was described previously (Chen et al., “Selective Inhibition of the West Nile Virus Methyltransferase by Nucleoside Analogs,” Antiviral Research 97(3):232-239 (2013) and Brecher et al., “Identification and Characterization of Novel Broad-Spectrum Inhibitors of the Flavivirus Methyltransferase,” ACS Infectious Diseases 1(8):340-349 (2015), both of which are hereby incorporated by reference in their entirety). N=3.

C. neoformans H99 strain = experiment: Fungal susceptibility test, broth microdilution MIC; assay type: cell-based, Cryptococcus neoformans; conditions: Cryptococcus neoformans, H99STRAIN; C. neoformans H99, microbroth dilution; read-out: MIC H99
Experimental: Fungal susceptibility test—The fungal susceptibility test was carried out with a compound concentration series as described. […] The broth microdilution method was used to determine the compound MIC values against C. neoformans.
Fungal susceptibility test—The fungal susceptibility test was carried out with a compound concentration series as described. […] Microbes. Infect. […] The broth microdilution method was used to determine the compound MIC values against C. neoformans.

Row | Compound | reduction of MIC of known antifungal on addition of 6G-318S (C. neoformans) | pIC50 (Prp8 intein [1]) | pIC50 (Prp8 intein [2]) | CC50 at 48 h (in vitro) | MIC (C. neoformans H99 strain)
1 | CC[C@H](C)C[C@H](C)CCCCCCCCC(=O)N[C@H]1C[C@@H](O)[C@@H](NCCN)NC(=O)[C@@H]2[C@@H](O)CCN2C(=O)[C@H]([C@H](O)CCN)NC(=O)[C@H]([C@H](O)[C@@H](O)c2ccc(O)cc2)NC(=O)[C@@H]2C[C@@H](O)CN2C(=O)[C@H]([C@@H](C)O)NC1=O [CAS, Caspofungin] | did not change |  |  |  | 
2 | O=C(NCc1ccc(F)cc1)c1nnsc1S(=O)(=O)c1ccc(Cl)cc1 [JMX0574, 5-((4-Chlorophenyl)sulfonyl)-N-(4-fluorobenzyl)-1,2,3-thiadiazole-4-carboxamide] |  | 5.80 | 4.23 | 21.5 µM | 0.78 µM (≈ 0.321 µg/mL)
3 | O=C(Nc1ccc(C(F)(F)F)cc1)c1nnsc1S(=O)(=O)c1ccc(Cl)cc1 [JMX0576, 5-((4-Chlorophenyl)sulfonyl)-N-(4-(trifluoromethyl)phenyl)-1,2,3-thiadiazole-4-carboxamide] |  | 6.05 | 4.92 | 40.3 µM | 0.78 µM (≈ 0.349 µg/mL)
4 | O=C(Nc1ccc(F)cc1)c1nnc(S(=O)(=O)c2ccc(Cl)cc2)s1 [JMX0585-1, 5-((4-chlorophenyl)sulfonyl)-N-(4-fluorophenyl)-1,3,4-thiadiazole-2-carboxamide] |  | 5.24 | 4.71 | 26 µM | 3.12 µM (≈ 1.24 µg/mL)
5 | O=C(Nc1ccc(Cl)cc1Cl)c1ncsc1S(=O)(=O)c1ccc(Cl)cc1 [JMX0519, 5-((4-Chlorophenyl)sulfonyl)-N-(2,4-dichlorophenyl)thiazole-4-carboxamide] |  | 4.30 | 4.93 | 245 µM | > 100 µM
6 | O=C(Nc1ccc(C(F)(F)F)cc1)c1nnsc1Sc1ccc(Cl)cc1 [JMX0575, 5-((4-Chlorophenyl)thio)-N-(4-(trifluoromethyl)phenyl)-1,2,3-thiadiazole-4-carboxamide] |  | < 4.30 | 4.67 | 271 µM | > 100 µM
7 | O=C(Nc1ccc(F)cc1)c1nnsc1[S+]([O-])c1ccc(Cl)cc1 (stereo not shown) [JMX0565-1, 5-((4-Chlorophenyl)sulfinyl)-N-(4-fluorophenyl)-1,2,3-thiadiazole-4-carboxamide] |  | 5.15 | 4.78 | 32.5 µM | 0.097 µM (≈ 0.037 µg/mL)
8 | O=C(Nc1ccc(F)cc1)c1nnc([S+]([O-])c2ccc(Cl)cc2)s1 (stereo not shown) [JMX0585-2, 5-((4-chlorophenyl)sulfinyl)-N-(4-fluorophenyl)-1,3,4-thiadiazole-2-carboxamide] |  | 5.35 | 4.68 | 28.5 µM | 0.097 µM (≈ 0.037 µg/mL)
9 | O=C(Nc1ccc(F)c(F)c1)c1ncsc1S(=O)(=O)c1ccc(Cl)cc1 [JMX0520, 5-((4-Chlorophenyl)sulfonyl)-N-(3,4-difluorophenyl)thiazole-4-carboxamide] |  | < 4.30 | 4.56 | 81.6 µM | > 100 µM
10 | O=C(NCc1ccc(F)cc1)c1ncsc1S(=O)(=O)c1ccc(Cl)cc1 [JMX0541, 5-((4-Chlorophenyl)sulfonyl)-N-(4-fluorobenzyl)thiazole-4-carboxamide] |  | < 4.30 | 4.97 | 114 µM | 100 µM (≈ 41.1 µg/mL)
11 | O=C(Nc1ccc(Cl)cc1)c1nnsc1S(=O)(=O)c1ccc(Cl)cc1 [JMX0571, N-(4-Chlorophenyl)-5-((4-chlorophenyl)sulfonyl)-1,2,3-thiadiazole-4-carboxamide] |  | 5.74 | 4.90 | 33.8 µM | 0.39 µM (≈ 0.162 µg/mL)
12 | O=C(Nc1ccc(F)cc1F)c1nnsc1Sc1ccc(Cl)cc1 [JMX0569, 5-((4-Chlorophenyl)thio)-N-(2,4-difluorophenyl)-1,2,3-thiadiazole-4-carboxamide] |  | < 4.30 | 4.44 | 186 µM | > 100 µM
13 | O=C(Nc1cc(F)cc(C(F)(F)F)c1)c1ncsc1S(=O)(=O)c1ccc(Cl)cc1 [JMX0522, 5-((4-Chlorophenyl)sulfonyl)-N-(3-fluoro-5-(trifluoromethyl)phenyl) thiazole-4-carboxamide] |  | 4.63 | 4.69 | 97.7 µM | 100 µM (≈ 46.5 µg/mL)
14 | O=C(Nc1cccc(F)c1)c1ncsc1S(=O)(=O)c1ccc(Cl)cc1 [JMX0517, 5-((4-Chlorophenyl)sulfonyl)-N-(3-fluorophenyl)thiazole-4-carboxamide] |  | < 4.30 | 4.55 | 161 µM | > 100 µM
15 | O=C(Nc1ccc(F)cc1)c1nnsc1Sc1ccc(Cl)cc1 [JMX0564, 5-((4-Chlorophenyl)thio)-N-(4-fluorophenyl)-1,2,3-thiadiazole-4-carboxamide] |  | 4.25 | 4.80 | 418 µM | > 100 µM
16 | O=C(Nc1ccc(Cl)cc1)c1nnsc1Sc1ccc(Cl)cc1 [JMX0570, N-(4-Chlorophenyl)-5-((4-chlorophenyl)thio)-1,2,3-thiadiazole-4-carboxamide] |  | 4.41 | 4.67 | 83.7 µM | > 100 µM
17 | O=C(Nc1ccc(F)cc1)c1nnc(Sc2ccc(Cl)cc2)s1 [JMX0584, 5-((4-chlorophenyl)thio)-N-(4-fluorophenyl)-1,3,4-thiadiazole-2-carboxamide] |  | < 4.30 | 4.96 | > 150 µM | > 100 µM
18 | O=C(Nc1ccc(F)nc1)c1ncsc1S(=O)(=O)c1ccc(Cl)cc1 [JMX0524, 5-((4-Chlorophenyl)sulfonyl)-N-(6-fluoropyridin-3-yl)thiazole-4-carboxamide] |  | < 4.30 | 5.11 | 174 µM | > 100 µM
19 | O=C(Nc1ccc(C(F)(F)F)nc1)c1ncsc1S(=O)(=O)c1ccc(Cl)cc1 [JMX0523, 5-((4-Chlorophenyl)sulfonyl)-N-(6-(trifluoromethyl)pyridin-3-yl) thiazole-4-carboxamide] |  | < 4.30 | 4.43 | 114 µM | > 100 µM
